The values that follow come from US9988381B2, “Five-member-heterocycle fused pyridine compounds, method of producing the same, and use thereof” (SHANGHAI INSTITUTE OF MATERIA MEDICA, CHINESE ACADEMY OF …, priority 2013, dated 2018).

Where two headings read alike, the source gives them in different places.

Data set [1] deals with T1, c-Met kinase domain recombinant protein (Homo sapiens, UniProt P08581).
T1 construct: 50 μL diluted solution of c-Met kinase domain recombinant protein in reaction buffer was added to initiate the reaction
As to the kind of experiment: biochemical. As to conditions: read-out: Inhibition rate at 10 μM (%). Summed up: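 Recombinant c-Met kinase domain phosphorylated immobilised Poly(Glu,Tyr)4:1 for 1 h at 37 °C in 50 mM HEPES pH 7.4, 50 mM MgCl2, 0.5 mM MnCl2, 0.2 mM Na3VO4, 1 mM DTT with ATP. Product measured by anti-phosphotyrosine PY99 ELISA (HRP, 490 nm), giving percent inhibition; ATP-free wells served as control.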

The target of data set [2] is T1, c-Met kinase domain recombinant protein. As to the kind of experiment: biochemical. As to conditions: for inhibition at 0.1 µM: read-out: Average inhibition rate at 0.1 μM (%); for inhibition at 1 µM: read-out: Average inhibition rate at 1 μM (%); for inhibition at 10 µM: read-out: Average inhibition rate at 10 μM (%). The procedure, abridged:
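IC50 came from a four-parameter fit of inhibition rates measured by anti-phosphotyrosine (PY99/HRP) ELISA at 490 nm. The reaction ran 1 hour at 37° C with 5 μM ATP, c-Met kinase domain protein and Poly(Glu,Tyr)4:1-coated wells, in HEPES pH 7.4 buffer containing MgCl2, MnCl2, Na3VO4 and DTT.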

In a further data set the test system is BaF3/TPR-Met cell. As to the kind of experiment: Test III: growth inhibition of engineered BaF3/TPR-Met cells (MTT). As to conditions: Mus musculus, BaF3, 72 h. Type of data set: cell-based.
Data set [3] has as its system human malignant glioblastoma cell U87MG xenograft. The data set can be described thus: Test V: human malignant glioblastoma U87MG xenograft in nude mice. Type of data set: in vivo. The procedure: U87-MG cells were expanded by in vitro culture, cells at log phase were harvested and resuspended in EMEM, adjusted to a cell density of 2.8×10^7/mL, then implanted subcutaneously in the right axilla of nude mice.
During the trial, tumor diameters and animal weights were measured twice a week. Tumor Volume (TV) was calculated by the following equation: TV=1/2×a×b^2, wherein a, b represent length and width, respectively. Based on the measurement, Relative Tumor Volume (RTV) was calculated by the following equation: RTV=Vt/V0, wherein V0 is the tumor volume measured when divided for administration (i.e., d0), Vt is the tumor volume measured at each timepoint.

Another data set has as its system MKN45 cell. The data set can be described thus: Test III: growth inhibition of gastric tumor cell MKN45 (SRB). The class given is cell-based. The conditions noted are these: Homo sapiens; for inhibition at 0.2 µM: MKN-45, read-out: Cell proliferation inhibition rate at 200 nM (%), MKN45, 200 nM. As to the method:
Assays on the growth inhibition of the compounds against gastric tumor cell MKN45, non-small cell carcinoma EBC-1 cell (both are MET persistent activated cell lines due to MET gene amplification, and are Met dependent tumor cell lines, MKN45 cell was purchased from JCRB, Japan, EBC-1 cell was purchased from ATCC, USA) were detected using sulforhodamine B (SRB) staining. […] After incubation with compound for 72 hours, the incubation was terminated, adherent cells were retained and medium was discarded, 10% (w/v) trichloroacetic acid (100 μL pre well) was added, the cells were fixed at 4° C. for 1 hour, then rinsed with distilled water for 5 times, after dried at room temperature, SRB solution (4 mg/mL, dissolved in 1% glacial acetic acid) was added at 100 μL per well, incubated and stained at room temperature for 15 minutes, then rinsed with 1% glacial acetic acid for 5 times to remove any unbound SRB, dried at room temperature, then 10 mM Tris solution was added at 100 μL per well, the optical density (OD) value at 515 nm was measured using VERSMax microplate reader.
Experiments were conducted in duplicates. IC50 value was calculated by fitting the data for a four parameter fit using inhibition curve, the results are shown below in Table 2.

Setting [4] is: 50 mg/kg po qd/14, end of administration.
[5] abbreviates: MKN-45, read-out: Cell proliferation inhibition rate at 1 μM (%), MKN45, 1 μM, 72 hours.

T1 sequence (P08581 1078-1345 limits assumed): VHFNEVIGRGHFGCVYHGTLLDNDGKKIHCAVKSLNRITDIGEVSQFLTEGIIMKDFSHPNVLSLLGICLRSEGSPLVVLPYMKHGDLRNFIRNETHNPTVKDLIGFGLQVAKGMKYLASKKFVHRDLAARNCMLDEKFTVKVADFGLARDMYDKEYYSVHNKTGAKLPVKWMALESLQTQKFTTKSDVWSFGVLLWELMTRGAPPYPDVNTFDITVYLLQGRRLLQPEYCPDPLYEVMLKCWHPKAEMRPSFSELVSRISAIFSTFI

`Cn1cc(-c2cnc3cnn(S(=O)(=O)c4cnc5ccccn45)c3c2)cn1` [Compound 19, 1-(imidazo[1,2-a]pyridine-3-sulfonyl)-6-[(1-methyl)-4-pyrazolyl]-1-H-pyrazolo[4,3-b]pyridine]: the inhibition at 10 µM in data set [1] came to 59.3%. Besides, in data set [2], the IC50 was 7.8 ± 0.8 nM, the inhibition at 0.1 µM came to 59.2%, the inhibition at 1 µM came out at 53.5% and the inhibition at 10 µM was 59.3%. Moreover, the inhibition at 0.2 µM with BaF3/TPR-Met cell (read-out: Cell proliferation inhibition rate at 200 nM (%)) stood at 91.8%. In addition, the inhibition at 1 µM in the data set on BaF3/TPR-Met cell (read-out: Cell proliferation inhibition rate at 1 μM (%)) is 95.6%. Moreover, in data set [3] (50 mg/kg daily for 14 days), the “state and survival of mice during the administration period” value was “in good state and were survived”. The “antitumor activity (in words)” value in data set [3] (50 mg/kg daily, d14) is “favorable antitumor activity”. In addition, in data set [3] (setting [4]), the “RTV (mean ± SE)” value was determined as 77.0 ± 5.2; the “TV (mm^3, mean ± SE) d21” value is on record as 140 ± 20 mm^3; the “Weight (g) d21” value is on record as 24.5 g. Besides, the “GI (%)” value in data set [3] (50 mg/kg po qd/14, end of the trial) came to 102.41%. The “T/C (%)” value in data set [3] (50 mg/kg po qd/14, end of the trial (d14)) amounted to 7.29%.
For the molecule `Cn1cc(-c2cnc3cnn(S(=O)(=O)c4cnc5ccc(-c6ccc(CN7CCOCC7)cc6)cn45)c3c2)cn1` [Example 91, 1-{[6-(4-morpholinomethylphenyl)-imidazo[1,2-a]pyridine]-3-sulfonyl}-6-[(1-methyl)-4-pyrazolyl]-1-H-pyrazolo[4,3-b]pyridine], the inhibition at 10 µM in data set [1] is over 69.4%. In addition, in data set [2], the inhibition at 0.1 µM came to 77.3%, the inhibition at 1 µM came out at 85.5% and the inhibition at 10 µM came to 74.1%. Also, the inhibition at 1 µM with MKN45 cell (setting [5]) is 72.9%.
For the molecule `COc1ccccc1-c1ccc2ncc(S(=O)(=O)n3ncc4ncc(-c5cnn(C)c5)cc43)n2c1` [Example 97, 1-{[6-(2-methoxyphenyl)-imidazo[1,2-a]pyridine]-3-sulfonyl}-6-[(1-methyl)-4-pyrazolyl]-1-H-pyrazolo[4,3-b]pyridine], in data set [1], the inhibition at 10 µM is over 63.8%. Further, in data set [2], the IC50 was found to be 0.5 ± 0.1 nM, the inhibition at 0.1 µM is 51.7%, the inhibition at 1 µM came to 62.7% and the inhibition at 10 µM was 65.5%. Besides, the inhibition at 1 µM in the data set on MKN45 cell (MKN-45, 72 h, read-out: Cell proliferation inhibition rate at 1 μM (%)) is 67.8%.
`Cn1cc(-c2cnc3cnn(S(=O)(=O)c4cnc5ccc(-c6ccc(F)nc6)cn45)c3c2)cn1` [Example 99, 1-{[6-(2-fluoro-5-pyridinyl)-imidazo[1,2-a]pyridine]-3-sulfonyl}-6-[(1-methyl)-4-pyrazolyl]-1-H-pyrazolo[4,3-b]pyridine]: the inhibition at 10 µM in data set [1] is over 73.3%; in data set [2], 71.8%. The inhibition at 0.1 µM in data set [2] turned out to be 55.5%. For the same molecule, the inhibition at 1 µM in data set [2] was determined as 66.2%; in the data set with MKN45 cell (setting [5]), 67.9%. Further, in the data set on MKN45 cell (72 hours), the inhibition at 0.2 µM worked out at 48.5%.
For the molecule `Cn1cc(-c2cnc3cnn(S(=O)(=O)c4cnc5ccc(-c6cccc(C#N)c6)cn45)c3c2)cn1` [Example 100, 1-{[6-(3-cyanophenyl)-imidazo[1,2-a]pyridine]-3-sulfonyl}-6-[(1-methyl)-4-pyrazolyl]-1-H-pyrazolo[4,3-b]pyridine], in data set [1], the inhibition at 10 µM is over 60.4%. Moreover, in data set [2], the inhibition at 0.1 µM was determined as 83.7%, the inhibition at 1 µM is 87.3% and the inhibition at 10 µM is 85.4%. Besides, the inhibition at 0.2 µM in the data set with MKN45 cell (72 hours) came out at 63.8%. In the data set with MKN45 cell (setting [5]), the inhibition at 1 µM turned out to be 66.6%.
Regarding `CNC(=O)c1ccc(-c2ccc3ncc(S(=O)(=O)n4ncc5ncc(-c6cnn(CCN(C)C)c6)cc54)n3c2)cc1F` [Example 102, 1-{(6-(3-fluoro-4-methylaminocarbonylphenyl)-imidazo[1,2-a]pyridine)-3-sulfonyl}-6-[(2-dimethylaminoethyl)-4-pyrazolyl]-1-H-pyrazolo[4,3-b]pyridine], the inhibition at 10 µM in data set [1] was over 65.5%. Also, in data set [2], the inhibition at 0.1 µM came to 73.7%, the inhibition at 1 µM worked out at 85.3% and the inhibition at 10 µM turned out to be 95.4%. Further, the inhibition at 0.2 µM in the data set on MKN45 cell (72 hours) stood at 63.8%. Further, the inhibition at 1 µM in the data set on MKN45 cell (setting [5]) was 67.9%.
